System: myocardial infarction-induced rats
Test: Relative perfusion of the heart (99mTc-tetrofosmin autoradiography) in myocardial infarction model rats
Assay type: in vivo, Sprague-Dawley rats
Details: 200 μL through an apical puncture, after one week
Method: First, 8-week-old Sprague-Dawley rats were purchased from Orientbio Inc., and acclimated for 3 days under conditions such as a temperature of 22±3° C., a relative humidity of 60±20%, an air ventilation cycle of 10 to 20 times/hour, a 12-hour light/dark cycle (light on 08:00 A.M. and light off 08:00 P.M.), sterile feed, and water supplies. […] After a week, ^99mtechnetium (Tc)-tetrofosmin was used as a myocardial perfusion imaging agent to obtain an autoradiographic images of rat hearts, and the relative perfusion was measured using a method represented by the following Equation 1 to evaluate an therapeutic effect of the VEGF-derived peptide. Relative perfusion (%)={(Activity value of ^99mTc-tetrofosmin in cardiac ischemic area)/Activity value of ^99mTc-tetrofosmin in septum)}×100 [Equation 1]
All the subsequent statistical analyses were performed using SAS ver. 9.2 (SAS Institute, Cary, US), the significance of difference was determined using a Duncan's multiple range test (MRT) and ANOVA, and a significant difference at p<0.05 was evaluated. All data was assumed to be significant within a range of 5%, and represented by an average±standard deviation (SD).

## Ac-MRIKPHQGQHI-NH2 [VEGF-derived peptide]
  perfusion-improving effect (relative perfusion) compared to the control (PBS): significant results were not observed

Reference: US10617641B2, “Composition for preventing or treating ischemic diseases, containing liposomes in which VEGF-derived peptides are supported” (INDUSTRIAL COOPERATION FOUNDATION CHONBUK NATIONAL …, priority 2015, dated 2020)
